Consider 9 compounds from patent US10004701B2, “Methods and compositions for treating infection” (UNIVERSITY OF ROCHESTER, priority 2012, dated 2018).

Holding throughout (test): AK assay 384-well format, Prestwick library screening
The test system of one assay is E. faecium. Type of assay: cell-based, Enterococcus faecium. Particulars: for fold induction at 50 µM: Enterococcus faecium, 3 h.
Assay [1] relates to A. baumannii strain 98-37-09. Type of assay: cell-based, Acinetobacter baumannii. Conditions: for fold induction at 50 µM: Acinetobacter baumannii, 983709, 3 h.
Another assay deals with E. cloacae. The format is cell-based, Enterobacter cloacae. Particulars: for fold induction at 50 µM: Enterobacter cloacae, 3 h.
The subject of the next assay is E. coli. Type of assay: cell-based, Escherichia coli. Conditions: for fold induction at 50 µM: Escherichia coli, 3 h.
The next assay concerns K. pneumoniae. The format is cell-based, Klebsiella pneumoniae. Conditions: for fold induction at 50 µM: Klebsiella pneumoniae, 3 h.
The subject of the next assay is P. aeruginosa. Type of assay: cell-based, Pseudomonas aeruginosa. Particulars: for fold induction at 50 µM: Pseudomonas aeruginosa, 3 h.
Assay [2] has as its system S. aureus strain USA300-0114. The format is cell-based, Staphylococcus aureus. Conditions: for fold induction at 50 µM: Staphylococcus aureus, USA300, 3 h.
The mark [3] stands for this setting: 50 μM final drug concentration, planktonic, cutoff for positive 3-fold increase.
Where [4] appears, read: 50 μM final drug concentration, planktonic, […].

Where two headings read alike, the source gives them in different places.

For `Oc1cc(O)c2c(c1)O[C@H](c1ccc(O)c(O)c1)[C@H](O)C2` [Epicatechin-(−)], the “AK-based Prestwick Library Screening Results, E. faecium (fold increase in extracellular AK activity)” value in the assay with E. faecium (setting [3]) is recorded as 0.9. The “AK-based Prestwick Library Screening Results, A. baumannii (fold increase in extracellular AK activity)” value in assay [1] (setting [3]) was 0.3. Further, the “AK-based Prestwick Library Screening Results, E. cloacae (fold increase in extracellular AK activity)” value in the assay on E. cloacae (setting [3]) was 0.3. Further, the “AK-based Prestwick Library Screening Results, E. coli (fold increase in extracellular AK activity)” value in the assay on E. coli (setting [3]) turned out to be 0.4. Further, the “AK-based Prestwick Library Screening Results, K. pneumoniae (fold increase in extracellular AK activity)” value in the assay on K. pneumoniae (setting [3]) was determined as 0.4. Moreover, the “AK-based Prestwick Library Screening Results, P. aeruginosa (fold increase in extracellular AK activity)” value with P. aeruginosa (setting [3]) was 0.3. For the same compound, the “AK-based Prestwick Library Screening Results, S. aureus (fold increase in extracellular AK activity)” value in assay [2] (setting [3]) is listed as 0.3.

As for `COc1cc(C)nc(-n2nc(C)cc2OC)n1` [Epirizole], the fold induction at 50 µM turned out to be 0.8 in the assay with E. faecium (50 μM final drug concentration, 384-well format, cutoff for positive-scoring molecules 3-fold increase, read-out: AK-based Prestwick Library Screening Results, E. faecium (increase in extracellular AK activity)); 0.9 in assay [1] (50 μM final drug concentration, 384-well format, cutoff for positive-scoring molecules 3-fold increase, read-out: AK-based Prestwick Library Screening Results, A. baumannii (increase in extracellular AK activity)); 1.2 with E. cloacae (50 μM final drug concentration, 384-well format, cutoff for positive-scoring molecules 3-fold increase, read-out: AK-based Prestwick Library Screening Results, E. cloacae (increase in extracellular AK activity)); 1 in the assay with E. coli (50 μM final drug concentration, 384-well format, cutoff for positive-scoring molecules 3-fold increase, read-out: AK-based Prestwick Library Screening Results, E. coli (increase in extracellular AK activity)); 0.7 in the assay with K. pneumoniae (50 μM final drug concentration, 384-well format, cutoff for positive-scoring molecules 3-fold increase, read-out: AK-based Prestwick Library Screening Results, K. pneumoniae (increase in extracellular AK activity)); 0.8 in the assay on P. aeruginosa (50 μM final drug concentration, 384-well format, cutoff for positive-scoring molecules 3-fold increase, read-out: AK-based Prestwick Library Screening Results, P. aeruginosa (increase in extracellular AK activity)). Moreover, the fold induction at 50 µM in assay [2] (50 μM final drug concentration, 384-well format, cutoff for positive-scoring molecules 3-fold increase, read-out: AK-based Prestwick Library Screening Results, S. aureus (increase in extracellular AK activity)) amounted to 2.2.

In the case of `C[C@]12C[C@H]3S[C@H]3C[C@@H]1CC[C@@H]1[C@@H]2CC[C@]2(C)[C@@H](O)CC[C@@H]12` [Epitiostanol], the fold induction at 50 µM came to 1 in the assay with E. faecium (planktonic E. faecium, 50 μM final drug concentration, […], read-out: AK-based Prestwick library screening result, E. faecium (fold increase in extracellular AK activity)); 1.1 in assay [1] (planktonic A. baumannii, 50 μM final drug concentration, […], read-out: AK-based Prestwick library screening result, A. baumannii (fold increase in extracellular AK activity)); 1.3 in the assay with E. cloacae (planktonic E. cloacae, 50 μM final drug concentration, […], read-out: AK-based Prestwick library screening result, E. cloacae (fold increase in extracellular AK activity)); 1.2 in the assay on E. coli (planktonic E. coli, 50 μM final drug concentration, […], read-out: AK-based Prestwick library screening result, E. coli (fold increase in extracellular AK activity)); 0.9 with K. pneumoniae (planktonic K. pneumoniae, 50 μM final drug concentration, […], read-out: AK-based Prestwick library screening result, K. pneumoniae (fold increase in extracellular AK activity)); 1.1 with P. aeruginosa (planktonic P. aeruginosa, 50 μM final drug concentration, […], read-out: AK-based Prestwick library screening result, P. aeruginosa (fold increase in extracellular AK activity)). In assay [2] (planktonic S. aureus, 50 μM final drug concentration, […], read-out: AK-based Prestwick library screening result, S. aureus (fold increase in extracellular AK activity)), the fold induction at 50 µM was 0.9.

With `CC[C@]12CCCN3CCc4c(n(c5ccccc45)[C@](O)(C(=O)OC)C1)[C@@H]32` [Epivincamine], the “AK-based Prestwick Library Screening Results, E. faecium (fold increase in extracellular AK activity)” value in the assay with E. faecium (setting [4]) came out at 1.0. The “AK-based Prestwick Library Screening Results, A. baumannii (fold increase in extracellular AK activity)” value in assay [1] (setting [4]) worked out at 1.2. Further, in the assay with E. cloacae (setting [4]), the “AK-based Prestwick Library Screening Results, E. cloacae (fold increase in extracellular AK activity)” value was determined as 1.6. Moreover, the “AK-based Prestwick Library Screening Results, E. coli (fold increase in extracellular AK activity)” value with E. coli (setting [4]) is listed as 1.3. The “AK-based Prestwick Library Screening Results, K. pneumoniae (fold increase in extracellular AK activity)” value in the assay with K. pneumoniae (setting [4]) stood at 1.2. Further, the “AK-based Prestwick Library Screening Results, P. aeruginosa (fold increase in extracellular AK activity)” value in the assay on P. aeruginosa (setting [4]) is 1.2. The “AK-based Prestwick Library Screening Results, S. aureus (fold increase in extracellular AK activity)” value in assay [2] (setting [4]) is on record as 1.0.

As for `C[C@]12CC[C@H]3C(=CCc4cc(O)ccc43)[C@@H]1CCC2=O` [Equilin], the fold induction at 50 µM was 1 with E. faecium (read-out: AK-based Prestwick Library Screening Results, E. faecium (fold increase in extracellular AK activity)); 1 in assay [1] (read-out: AK-based Prestwick Library Screening Results, A. baumannii (fold increase in extracellular AK activity)); 1.4 with E. cloacae (read-out: AK-based Prestwick Library Screening Results, E. cloacae (fold increase in extracellular AK activity)); 1.3 in the assay with E. coli (read-out: AK-based Prestwick Library Screening Results, E. coli (fold increase in extracellular AK activity)); 0.9 with K. pneumoniae (read-out: AK-based Prestwick Library Screening Results, K. pneumoniae (fold increase in extracellular AK activity)); 1.1 in the assay with P. aeruginosa (read-out: AK-based Prestwick Library Screening Results, P. aeruginosa (fold increase in extracellular AK activity)). For the same compound, the fold induction at 50 µM in assay [2] (read-out: AK-based Prestwick Library Screening Results, S. aureus (fold increase in extracellular AK activity)) came out at 3.9.

On to `CC(C)C[C@H]1C(=O)N2CCC[C@H]2[C@]2(O)O[C@](NC(=O)[C@@H]3C=C4c5cccc6[nH]cc(c56)C[C@H]4N(C)C3)(C(C)C)C(=O)N12` [Ergocryptine-alpha], for which the “AK-based Prestwick Library Screening Results, E. faecium (fold increase in extracellular AK activity)” value in the assay with E. faecium (setting [4]) is reported as 0.7. Moreover, the “AK-based Prestwick Library Screening Results, A. baumannii (fold increase in extracellular AK activity)” value in assay [1] (setting [4]) is 0.5. Also, the “AK-based Prestwick Library Screening Results, E. cloacae (fold increase in extracellular AK activity)” value in the assay with E. cloacae (setting [4]) was determined as 0.4. Besides, the “AK-based Prestwick Library Screening Results, E. coli (fold increase in extracellular AK activity)” value in the assay with E. coli (setting [4]) amounted to 0.4. In addition, in the assay with K. pneumoniae (setting [4]), the “AK-based Prestwick Library Screening Results, K. pneumoniae (fold increase in extracellular AK activity)” value is 0.5. In addition, the “AK-based Prestwick Library Screening Results, P. aeruginosa (fold increase in extracellular AK activity)” value with P. aeruginosa (setting [4]) amounted to 0.4. Further, in assay [2] (setting [4]), the “AK-based Prestwick Library Screening Results, S. aureus (fold increase in extracellular AK activity)” value came out at 0.2.

Consider `O=c1ccc2cc(O)c(O)cc2o1` [Esculetin], for which the fold induction at 50 µM was 1 in the assay on E. faecium (50 μM final drug concentration, […], read-out: AK-based Prestwick Library Screening Results, E. faecium (fold increase in extracellular AK activity)); 1.1 in assay [1] (50 μM final drug concentration, […], read-out: AK-based Prestwick Library Screening Results, A. baumannii (fold increase in extracellular AK activity)); 1.4 with E. cloacae (50 μM final drug concentration, […], read-out: AK-based Prestwick Library Screening Results, E. cloacae (fold increase in extracellular AK activity)); 1.4 with E. coli (50 μM final drug concentration, […], read-out: AK-based Prestwick Library Screening Results, E. coli (fold increase in extracellular AK activity)); 1.2 in the assay on K. pneumoniae (50 μM final drug concentration, […], read-out: AK-based Prestwick Library Screening Results, K. pneumoniae (fold increase in extracellular AK activity)); 0.9 in the assay with P. aeruginosa (50 μM final drug concentration, […], read-out: AK-based Prestwick Library Screening Results, P. aeruginosa (fold increase in extracellular AK activity)). The fold induction at 50 µM in assay [2] (50 μM final drug concentration, […], read-out: AK-based Prestwick Library Screening Results, S. aureus (fold increase in extracellular AK activity)) is 1.1.

Turning to `O=c1ccc2cc(O[C@@H]3O[C@H](CO)[C@@H](O)[C@H](O)[C@H]3O)c(O)cc2o1` [Esculin Hydrate], the fold induction at 50 µM in the assay with E. faecium (50 μM final drug concentration, planktonic, […], read-out: AK-based Prestwick Library Screening Results, E. faecium (fold increase in extracellular AK activity)) stood at 0.9; in assay [1] (50 μM final drug concentration, planktonic, […], read-out: AK-based Prestwick Library Screening Results, A. baumannii (fold increase in extracellular AK activity)) it was 0.8; with E. cloacae (50 μM final drug concentration, planktonic, […], read-out: AK-based Prestwick Library Screening Results, E. cloacae (fold increase in extracellular AK activity)), 0.9; with E. coli (50 μM final drug concentration, planktonic, […], read-out: AK-based Prestwick Library Screening Results, E. coli (fold increase in extracellular AK activity)), 0.7; with K. pneumoniae (50 μM final drug concentration, planktonic, […], read-out: AK-based Prestwick Library Screening Results, K. pneumoniae (fold increase in extracellular AK activity)), 0.6; in the assay on P. aeruginosa (50 μM final drug concentration, planktonic, […], read-out: AK-based Prestwick Library Screening Results, P. aeruginosa (fold increase in extracellular AK activity)), 0.8. Further, the fold induction at 50 µM in assay [2] (50 μM final drug concentration, planktonic, […], read-out: AK-based Prestwick Library Screening Results, S. aureus (fold increase in extracellular AK activity)) turned out to be 0.7.

As to `CNC(=O)Oc1ccc2c(c1)[C@]1(C)CCN(C)[C@@H]1N2C.CNC(=O)Oc1ccc2c(c1)[C@]1(C)CCN(C)[C@@H]1N2C.O=S(=O)(O)O` [Eserine sulfate, physostigmine sulfate], the “AK-based Prestwick Library Screening Results, E. faecium (increase in extracellular AK activity)” value with E. faecium (planktonic E. faecium, 50 μM final drug concentration, […]) is listed as 0.9. Moreover, the “AK-based Prestwick Library Screening Results, A. baumannii (increase in extracellular AK activity)” value in assay [1] (planktonic A. baumannii, 50 μM final drug concentration, […]) is given as 0.5. The “AK-based Prestwick Library Screening Results, E. cloacae (increase in extracellular AK activity)” value in the assay with E. cloacae (planktonic E. cloacae, 50 μM final drug concentration, […]) is recorded as 0.7. Besides, the “AK-based Prestwick Library Screening Results, E. coli (increase in extracellular AK activity)” value in the assay on E. coli (planktonic E. coli, 50 μM final drug concentration, […]) came out at 0.7. The “AK-based Prestwick Library Screening Results, K. pneumoniae (increase in extracellular AK activity)” value in the assay with K. pneumoniae (planktonic K. pneumoniae, 50 μM final drug concentration, […]) is reported as 0.5. Moreover, in the assay with P. aeruginosa (planktonic P. aeruginosa, 50 μM final drug concentration, […]), the “AK-based Prestwick Library Screening Results, P. aeruginosa (increase in extracellular AK activity)” value was determined as 0.6. In addition, in assay [2] (planktonic S. aureus, 50 μM final drug concentration, […]), the “AK-based Prestwick Library Screening Results, S. aureus (increase in extracellular AK activity)” value is given as 0.4.
